The values below come from US10569270B2, “Screening kit and method” (CELLPLY S.R.L., priority 2016, dated 2020).

For orientation: IC50 means the concentration at which inhibition is half-maximal. Read a low IC50 as greater potency in that assay.

One assay relates to SU-DHL-4 cancer cells. Put plainly: open well assay of Rituximab on SU-DHL-4 lymphoma cells (Calcein AM / PI, time-lapse). The class given is cell-based. To be noted: Rituximab 10 μg/mL, hS 1%, PI 5 μM; images up to 60 min; versus CTRL; FIG. 11A. Here is the method: Cells: SU-DHL-4 lymphoma cells and Raji cells were used (ATCC CCL-86). 3·10^5 cells/mL were cultured in RPMI medium supplemented with 10% FBS, 1% […]/streptomycin at 37° C., 95% RH, 5% CO2. The cells were amplified, dividing them when in confluence. PBMC were isolated from blood by centrifugation in gradient. Whole blood from healthy donors was collected into tubes treated with anticoagulants according to the directive “ethical principles and guidelines for the protection of humans in research”. Isolated PBMC were washed twice with 10 mL cold HBSS after lysis of red blood cells. The concentration of cells and their viability was determined with Trypan Blue on haemocytometer. The concentration was adjusted to 1 million cells/mL.
Different batches of SU-DHL-4 or Raji cells were harvested at the peak of their growth, washed with PBS and counted in a hemocytometer with Trypan Blue. The cell concentration was adjusted to 1 million cells/mL and they were labeled with Calcein AM (CAM) 5 nM for flow cytometry and 250 nM for the assay according to the present invention. […] Cell viability was finally assessed by PI and flow cytometry. […]
The images were acquired brightfield (BF) to evaluate the morphological characteristics and then in fluorescence to evaluate the signal in DAPI bands (ex: 360/40 nm, 460/50 nm), FITC (ex: 480/30 nm, em: 535/40 nm), TRITC (ex: 540/25 nm, em: 605/55 nm). […]

Assay [1] deals with leukemic cell lines (KG-1, Kasumi-1 and HL-60). Kind of assay: dose/response analysis of leukemic cell lines to idarubicin in the open reversed microwell system. To be noted: leukemic cell line (one of KG-1, Kasumi-1, HL-60), FIG. 9C. The class given is cell-based.
In the next assay the test system is Jurkat cells. Put plainly: calcium signal (Fluo-4) of Jurkat cells in open microwells after stimulation. The class given is cell-based, human. The note with it: Fluo-4 labeled Jurkat cells. As to the method:
Cells from the Jurkat cell line (human Leukemic T cells) were obtained from ATCC and cultured in RPMI 1640 medium supplemented with 10% inactivated FBS medium, 10 mM Hepes, 2 mM Ultraglutamine and 1 mM sodium pyruvate, 1% Penicillin/Streptomycin in 25 cm^2 flasks at 37° C. and 5% CO2.
For the assay in open microwells according to the present invention, Jurkat cells were labeled with Fluo-4 20 μM in HBSS, centrifuged and resuspended in serum-free medium (RPMI 1640 with 25 mM Hepes or HBSS) at a concentration of 1.6×10^6 cells/mL in 1.5 mL Eppendorf tubes used as input reservoirs for the open reversed microwell system. Subsequent to the deposition of Jurkat cells in the microwells (approximately 1-10 cells per microwell) and washing the channels with HBSS, the solutions containing Ionomycin (2 μg/mL) or OKT3 (10 μg/mL) are made to flow into specific microchannels of the open microwell system via peristaltic pump. The images were acquired by a camera connected to the microscope at a distance of 1 minute and processed by software developed in LabView, quantifying the dynamic performance of the same signal on each sample cell.

RTX: monoclonal antibody Rituximab: the “dead cells (PI, TRITC channel) in time-lapse images” value with SU-DHL-4 cancer cells was “present only at T2 and T3 in the RTX group”. For `CC(=O)[C@]1(O)Cc2c(O)c3c(c(O)c2[C@@H](O[C@H]2C[C@H](N)[C@H](O)[C@H](C)O2)C1)C(=O)c1ccccc1C3=O` [idarubicin], the IC50 in assay [1] (response level: resistant) stood at 213 nM; in assay [1] (response level: sensitive on the average), 21.8 nM; in assay [1] (response level: sensitive) it was 4.9 nM. With `C[C@H](CCC(=O)O)C[C@H](C)C[C@H](C)C(=O)/C=C(\O)[C@H](C)C[C@H](C)C/C=C/[C@@H](C)[C@@H](O)[C@@H](C)[C@@H](O)C[C@@H]1CC[C@@](C)([C@H]2CC[C@@](C)([C@@H](C)O)O2)O1` [Ionomycin], the “average increase of the signal with respect to the baseline” value in the assay with Jurkat cells (Ionomycin 2 μg/mL, series of 10 experiments) is 193%+/−139%.

As for “OKT3: monoclonal antibody purified from OKT3 hybridoma culture supernatant”, the “increase of the signal peak compared to the baseline value” in the assay on Jurkat cells (OKT3 10 μg/mL, average of a series of 3 experiments) is 178%+/−90%.
